Measured values reported in article PMC8418751, “3D-printing magnesium–polycaprolactone loaded with melatonin inhibits the development of osteosarcoma by regulating cell-in-cell structures” (Journal of Nanobiotechnology, 2021).

Key:
[1] = In vivo safety of melatonin in mice (body weight, HE of main organs); conditions: tail vein, once every 2 days at 3 mg each time, 30 days
Procedure: Tissues were fixed in 4% paraformaldehyde. After fixation, the samples were decalcified in 10% EDTA for 21 days before paraffin embedding and then sliced microtomically into a systematic series of 16 μm sections. Standard HE staining was performed and photographed. The average number of deposits per section was calculated using Image-Pro Plus 6.0 (Media Cybernetics, USA).
The safety of melatonin in mice was further studied by injecting melatonin into the tail vein of mice once every 2 days at 3 mg each time. After 30 days, the heart, liver, spleen, lung, kidney and other important organs were collected, sectioned and stained with HE for microscopy observation. […] Along with the increasing of the mass ratio of melatonin and SunP Gel G1, the LE and LC were increased. The LE reached peak at mass ratio of 1:2 and was decreased at mass ratio of 2:1. The mass ratio of 1:2 was selected for further experiments.

[2] = In vitro release of melatonin (dialysis bag, PBS pH 7.4); assay type: physicochemical; conditions: at 10 h; PBS pH 7.4, 37 °C
Procedure: Standard curve of melatonin was first draw using PBS (pH = 7.4) as solvent under the wavelength of the maximum absorption peak (278 nm). […] The dialysis bag was then placed in a beaker containing the same pH PBS buffer and was vibrated horizontally in a constant temperature shaker (37 °C ± 0.5 °C) with a vibration frequency of 50 times/min. The release liquid (5 ml) was replaced with same amounts of fresh PBS at selected time intervals. The absorbance value of the solution was measured at 278 nm and the drug release rate was calculated as follow: R(%)=ρnV+Vi∑tn-iρi/MD×100 where R means the cumulative drug release rate (%); n means the number of sampling. ρn represents the mass concentration (g/l) of the drug in the nth release. V represents the total volume of the release liquid. ρi represents the mass concentration (g/l) of the drug in the ith release, Vi represents the volume of the release liquid at the ith sampling and MD means the mass of drug loaded (g).

[3] = tested on: human OS (U2OS) cells; test: U2OS xenograft in nude mice: OS growth and metastasis; assay type: in vivo, Balb/c nude mice; conditions: nude mice with implanted U2OS cells, 27 days
Procedure: Female Balb/c nude mice (n = 6, 8 weeks old) were purchased from the Experimental Animal Center of Jilin University. The mice were bred under temperature-controlled conditions at 22.6 ± 2 °C with a 12-h day/light cycle. All applicable institutional and national guidelines for the care and use of animals were followed and the animal experiments were approved by the Animal Care and Use Committee of China Medical University. The heterograft mouse model was established by subcutaneous injection of 2 × 10^8 human OS (U2OS) cells suspended in 0.2 ml medium into the root of the right thigh. […]
The mice were sacrificed. […] Histological alterations were evaluated using a fluorescence microscope (Nikon Eclipse Ti, Optical Apparatus Co., Ardmore, USA) and a confocal microscope (Carl Zeiss, LSM 780).
Tissues were fixed in 4% paraformaldehyde. […] The average number of deposits per section was calculated using Image-Pro Plus 6.0 (Media Cybernetics, USA). […]

[4] = tested on: U2OS cells; test: CIC formation in U2OS cells (immunofluorescence, electron microscope); assay type: cell-based, human; conditions: immunofluorescence and electron microscope
Procedure: The cells were scrapped after treatment, collected by centrifugation, washed with PBS and fixed with 5% glutaraldehyde. After the cells were dehydrated, embedded, sectioned, stained, the mitophagosomes were observed by TEM. The quantity of CIC structures was calculated in 10 fields a view. After treatment, the cells were fixed with 4% paraformaldehyde at room temperature (23–25 °C) for 15 min. After PBS washing, cells were permeabilized with 0.2% Triton X-100 for 5 min. Sections were incubated in a blocking buffer containing 5% BSA for 30 min at room temperature (23–25 °C), followed by incubation with primary antibodies overnight at 4 °C. Secondary antibodies labeled with fluorescein (1:500, Abcam) were applied for 120 min. After incubating with 0.1% DAPI for 10 min and another wash with PBS, images were captured on a wide field fluorescent microscope (Olympus, Japan). Each experiment was repeated three times (total, n = 90 cells) and the fluorescence intensities were quantified with the ImageJ software. […] The cells were then washed with ice-cold PBS, and analyzed under a confocal laser scanning microscope (Olympus, Tokyo, Japan). […] Image-Pro Plus 6.0 (Media Cybernetics) was used for quantifying mitochondria.

[5] = tested on: PKA-Rho/ROCK signaling pathway; test: Western blot of PKA, p-PKA, Rho, ROCK in U2OS cells; assay type: cell-based, human
Procedure: Cells or tissues were washed with ice-cold PBS and resuspended in lysis buffer (50 mM Tris–HCl, 150mM NaCl, 1% NP-40, 0.5% sodium deoxycholate, 0.1% sodium dodecyl sulfate) containing protease and phosphorylase inhibitor cocktails. After centrifugation at 12,000g for 30 min at 4 °C, the supernatant containing total protein was collected and quantified using the BCA protein concentration assay kit (Boster, Hubei, China). The samples were separated by SDS-PAGE and then transferred to polyvinylidene difluoride (PVDF) membranes (Millipore, Massachusetts, USA) (210 mA, between 30 and 120 min according to the molecular mass of the protein). After blocking for 2 h with 5% non-fat milk, the PVDF membranes were incubated with the appropriate primary antibodies (1:500 or 1:1000 dilution) at 4 °C overnight. The blots were then incubated with anti-mouse or anti-rabbit IgG conjugated to horseradish peroxidase (1:5000 dilution) for 1 h at room temperature (23–25 °C). Immunoreactive bands were visualized by the EC3 imaging system (UVP Inc., California, USA), and quantified with the ImageJ software (NIH, USA). The ratios between the proteins of interest and loading controls of the same sample were calculated as relative content and expressed graphically. The results were averaged from three independent experiments.

[6] = tested on: U2OS cells; test: Mitochondrial physiology of U2OS cells (fluorescence, Western blot, mtDNA, ATP, O2 consumption); assay type: cell-based, human; conditions: 24 h
Procedure: (§1) U2OS cells were divided into 8 groups: (1) Control group: without any treatment; (2) MT group: U2OS cells were added with 1 mM melatonin; (3) MT + ROCK activator group: U2OS cells were added with 1mM melatonin and 50 µM ROCK activator (pentanoic acid); (4) MT + ROCK inhibitor group: U2OS cells were added with 1mM melatonin and 50 µM ROCK inhibitor (ROCK inhibitor-2); (5) Mg–PCL group: U2OS cells were co-cultured with Mg–PCL scaffold; (6) Mg–PCL + MT group: U2OS cells were co-cultured with Mg–PCL scaffold loaded with melatonin; (7) Mg–PCL + MT + ROCK activator group: U2OS cells were co-cultured with Mg–PCL scaffold loaded with melatonin and added with 50 µM ROCK activator (pentanoic acid); and (8) Mg–PCL + MT + ROCK activator group: U2OS cells were co-cultured with Mg–PCL scaffold loaded with melatonin and added with 50 µM ROCK inhibitor (ROCK inhibitor-2).
Cells or tissues were washed with ice-cold PBS and resuspended in lysis buffer (50 mM Tris–HCl, 150mM NaCl, 1% NP-40, 0.5% sodium deoxycholate, 0.1% sodium dodecyl sulfate) containing protease and phosphorylase inhibitor cocktails. After centrifugation at 12,000g for 30 min at 4 °C, the supernatant containing total protein was collected and quantified using the BCA protein concentration assay kit (Boster, Hubei, China). […] Immunoreactive bands were visualized by the EC3 imaging system (UVP Inc., California, USA), and quantified with the ImageJ software (NIH, USA). The ratios between the proteins of interest and loading controls of the same sample were calculated as relative content and expressed graphically. […]
After treatment, the cells were fixed with 4% paraformaldehyde at room temperature (23–25 °C) for 15 min. […] Each experiment was repeated three times (total, n = 90 cells) and the fluorescence intensities were quantified with the ImageJ software. […] The cells were then washed with ice-cold PBS, and analyzed under a confocal laser scanning microscope (Olympus, Tokyo, Japan). […] Image-Pro Plus 6.0 (Media Cybernetics) was used for quantifying mitochondria. […]

[7] = tested on: U2OS cells; test: Wound-healing assay; assay type: cell-based, human
Procedure: as §1
The U2OS cells were plated at 8.5 × 10^5/well on 6-well plates for 48 h and were wounded by scratching with a pipette tip. They were subsequently incubated with DMEM containing 0.5% FBS. After repeated treatment at 0, 12, 24 and 48 h, the cells were photographed using a phase contrast microscope (Olympus, Japan).

[8] = tested on: U2OS cells; test: Transwell (Boyden chamber) cell invasion and migration assays; assay type: cell-based, human; conditions: 24 h
Procedure: as §1
To examine the effects of melatonin and CIC formation on the invasiveness of U2OS cells in vitro, we employed a modified Boyden chamber invasion assay with Matrigel coating. After treatment, the cells were seeded into the upper section of the Boyden chamber (Neuro Probe, Cabin John, MD, USA) at densities of 2.0 × 10^5/ml, and then incubated for 24 h at 37 °C. Finally, the cells were counted under a light microscope. Cell migration was measured by a cell invasion assay without Matrigel coating.

SMILES: COc1ccc2[nH]cc(CCNC(C)=O)c2c1 [melatonin, Melatonin]
- organ damage (HE staining of heart, liver, spleen, lung, kidney) [1]: no organ damage was observed
- weight of mice [1]: stable without notable changes
- cumulative release rate [2]: 96.3%
- cell apoptosis of xenograft tumors (TUNEL) [3]: promoted
- tumor weight of xenograft tumors [3]: effectively inhibited
- cell proliferation of xenograft tumors (Ki-67) ([3]; melatonin 40 mg kg−1 day−1 i.p. or loaded scaffold, ROCK activator/inhibitor 10 mg kg−1 day−1 i.p.): effectively inhibited
- number of CIC structure [4]: significantly reduced
- PKA phosphorylation (Western blot) [5]: promote PKA phosphorylation
- Rho and ROCK expressions (Western blot) [5]: reduced
- relative fluorescence of mitochondria ([6]; 1 mM melatonin, 50 µM ROCK activator/inhibitor): reduced
- expression of mitochondrial biogenesis-related proteins PGC1α, NRF1 and TFAM ([6]; Western blot): downregulated
- expression of mitochondrial biomarkers TOM20, COX-4l1 and ATP Synβ ([6]; Western blot): reduced
- cell migrated area relative to control (wound healing) ([7]; U2OS cells): significantly decreased
- scratch width (wound healing) ([7]; U2OS cells, 0, 12, 24 and 48 h): wider
- number of invaded and migrated cells (Transwell) [8]: significantly lower
